The source of these data is US20230248034A1, “A SWEETENER OR SWEETNESS ENHANCER COMPOSITION” (ANALYTICON DISCOVERY GMBH, priority 2020, published 2023).

Assay [1] in a line: Organoleptic test of the compounds against sucrose (sweetness). Details: key: 3: sweeter than the control solution; 2: sweetness comparable with the control solution; 1: less sweet than the control solution but still sweet. Type of assay: in vivo. As to conditions: 0.4 mg/ml (400 ppm) in non-carbonated mineral water vs sucrose 20 g/l; panel of 3-4 panelists. As to the method:
The isolated pure compound was dissolved in non-carbonated mineral water (“Evian”) in a concentration of 0.4 mg/ml (400 ppm). The sweet taste of each sample was compared by a panel of 3-4 panelists with a solution of sucrose in a concentration of 20 g/l.

Assay [2] can be described thus: Organoleptic test in combination with sucrose against sucrose (sucrose enhancement, 2-AFC). In kind it is in vivo. Details: key: x = detected. As to conditions: compound below its sweetness perception level in 6% sucrose vs 6% sucrose, 12 to 15 panelists. As to the method: The isolated pure compounds were dissolved in non-carbonated mineral water (“Evian”) in a concentration of 50 ppm (0.05 mg/ml), 25 ppm (0.025 mg/ml), 12.5 pm (0.0125 mg/ml) and […] (0.00625 mg/ml). The sweet taste of each sample was detected by a panel of 3-4 panelists to detect the sweetness perception level. The highest concentration below the sweetness perception level was used for the evaluation of the sweet taste enhancement of sucrose.
A solution of the isolated compound in a concentration below the sweetness perception level was dissolved in 6% sucrose solution. The sweet taste of this sample was compared to the sweet taste of a 6% sucrose solution by a panel of 12 to 15 panelists in a two-alternative forced-choice test (2-AFC. E2164-16_Standard Test Method for Directional Difference Test). The panelists were trained to differentiate between the sweetness of a 6% and a 7% Sucrose solution.

Assay [3] can be described thus: Organoleptic test in combination with Rebaudioside M (Rebaudioside M enhancement, 2-AFC). On the set-up: key: x = detected. In kind it is in vivo. To be noted: compound below its sweetness perception level in 150 ppm Rebaudioside M vs 150 ppm Rebaudioside M, 12 to 15 panelists. How it is done:
The isolated pure compounds were dissolved in non-carbonated mineral water (“Evian”) in a concentration of 50 ppm (0.05 mg/ml), 25 ppm (0.025 mg/ml), 12.5 pm (0.0125 mg/ml) and 6.125 ppm (0.006125 mg/ml). The sweet taste of each sample was detected by a panel of 3-4 panelists to detect the sweetness perception level. The highest concentration below the sweetness perception level was used for the evaluation of the sweet taste enhancement of Rebaudioside M.
A solution of the isolated compounds in a concentration below the sweetness perception level was dissolved in 150 ppm Rebaudioside M solution. The sweet taste of this sample was compared to the sweet taste of a 150 ppm Rebaudioside M solution by a panel of 12 to 15 panelists in a two-alternative forced-choice test (2-AFC. E2164-16_Standard Test Method for Directional Difference Test). The panelists were trained to differentiate between the sweetness of a 150 ppm and a 190 ppm Rebaudioside M solution.

For assay [4] the following is noted: 5% sucrose in water; cited from earlier work.

For `C[C@@H]1O[C@@H](O[C@H]2[C@H](OC(=O)[C@]34CCC(C)(C)C[C@H]3C3=CCC5[C@@]6(C)C[C@H](O)[C@H](O[C@@H]7O[C@H](CO[C@@H]8OC[C@H](O)[C@H](O)[C@H]8O)[C@@H](O)[C@H](O)[C@H]7O)C(C)(C)C6CC[C@@]5(C)[C@]3(C)C[C@H]4O)OC[C@@H](O)[C@@H]2O)[C@H](O)[C@H](O[C@@H]2OC[C@](O)(CO)[C@H]2O)[C@H]1O[C@@H]1OC[C@H](O)[C@H](O[C@@H]2OC[C@@H](O)[C@H](O)[C@H]2O)[C@H]1O` (stereo partly shown) [Astersaponin A], in assay [1], the Sweetness worked out at 2. The Sucrose enhancement result in assay [2] was “x”. The “Reb M enhancement” value in assay [3] is “x”.
`C[C@@H]1O[C@@H](O[C@H]2[C@H](OC(=O)[C@]34CCC(C)(C)C[C@H]3C3=CCC5[C@@]6(C)CC[C@H](O[C@@H]7O[C@H](CO[C@@H]8OC[C@H](O)[C@H](O)[C@H]8O)[C@@H](O)[C@H](O)[C@H]7O)C(C)(C)C6CC[C@@]5(C)[C@]3(C)C[C@H]4O)OC[C@@H](O)[C@@H]2O)[C@H](O)[C@H](O[C@@H]2OC[C@](O)(CO)[C@H]2O)[C@H]1O[C@@H]1OC[C@H](O)[C@H](O[C@@H]2OC[C@@H](O)[C@H](O)[C@H]2O)[C@H]1O` (stereo partly shown) [Astersaponin B] showed a Sweetness in assay [1] of 1. In addition, the Sucrose enhancement entry in assay [2] is “x”. Besides, the “Reb M enhancement” value in assay [3] was “x”.
`C[C@@H]1O[C@@H](O[C@@H]2[C@@H](O[C@@H]3O[C@@H](C)[C@H](O[C@@H]4OC[C@H](O)[C@H](O[C@@H]5OC[C@@H](O)[C@H](O)[C@H]5O)[C@H]4O)[C@@H](OC4OC[C@](O)(CO)[C@H]4O)[C@H]3O)[C@H](OC(=O)[C@]34CCC(C)(C)C[C@H]3C3=CCC5[C@@]6(C)C[C@H](O)[C@H](O[C@@H]7O[C@H](CO[C@@H]8OC[C@H](O)[C@H](O)[C@H]8O)[C@@H](O)[C@H](O)[C@H]7O)C(C)(C)C6CC[C@@]5(C)[C@]3(C)C[C@H]4O)OC[C@H]2O)[C@H](O)[C@H](O)[C@H]1O` (stereo partly shown) [Astersaponin C] returned a Sweetness in assay [1] of 3. For the same compound, the Sucrose enhancement result in assay [2] is listed as “x”. Also, the “Reb M enhancement” value in assay [3] was “x”.
`C[C@@H]1O[C@@H](O[C@@H]2[C@@H](O[C@@H]3O[C@@H](C)[C@H](O[C@@H]4OC[C@H](O)[C@H](O[C@@H]5OC[C@@H](O)[C@H](O)[C@H]5O)[C@H]4O)[C@@H](O[C@@H]4OC[C@](O)(CO)[C@H]4O)[C@H]3O)[C@H](OC(=O)[C@]34CCC(C)(C)C[C@H]3C3=CCC5[C@@]6(C)CC[C@H](O[C@@H]7O[C@H](CO[C@@H]8OC[C@H](O)[C@H](O)[C@H]8O)[C@@H](O)[C@H](O)[C@H]7O)C(C)(C)C6CC[C@@]5(C)[C@]3(C)C[C@H]4O)OC[C@H]2O)[C@H](O)[C@H](O)[C@H]1O` (stereo partly shown) [Astersaponin D] registered a Sweetness in assay [1] of 2. Besides, the Sucrose enhancement entry in assay [2] is “x”. Also, the “Reb M enhancement” value in assay [3] is “x”.
`C[C@@H]1O[C@@H](O[C@H]2[C@H](OC(=O)[C@]34CCC(C)(C)C[C@H]3C3=CC[C@@H]5[C@@]6(C)C[C@H](O)[C@H](O[C@@H]7O[C@H](CO[C@@H]8OC[C@H](O)[C@H](O)[C@H]8O)[C@@H](O)[C@H](O)[C@H]7O)C(C)(C)[C@@H]6CC[C@@]5(C)[C@]3(C)C[C@H]4O)OC[C@@H](O)[C@@H]2O)[C@H](O)[C@H](O)[C@H]1O[C@@H]1OC[C@H](O)[C@H](O[C@@H]2OC[C@@H](O)[C@H](O)[C@H]2O)[C@H]1O` [Astersaponin E] showed a Sweetness in assay [1] of 2. In addition, in assay [2], the Sucrose enhancement entry is “x”. The “Reb M enhancement” value in assay [3] is “x”.
On to `C[C@@H]1O[C@@H](O[C@H]2[C@H](OC(=O)[C@]34CCC(C)(C)C[C@H]3C3=CCC5[C@@]6(C)CC[C@H](O[C@@H]7O[C@H](CO[C@@H]8OC[C@H](O)[C@H](O)[C@H]8O)[C@@H](O)[C@H](O)[C@H]7O)C(C)(C)C6CC[C@@]5(C)[C@]3(C)C[C@H]4O)OC[C@@H](O)[C@@H]2O)[C@H](O)[C@H](O)[C@H]1O[C@@H]1OC[C@H](O)[C@H](O[C@@H]2OC[C@@H](O)[C@H](O)[C@H]2O)[C@H]1O` (stereo partly shown) [Astersaponin F], for which the Sweetness in assay [1] turned out to be 1. Further, the Sucrose enhancement result in assay [2] is on record as “x”. In assay [3], the “Reb M enhancement” value is reported as “x”.
`COc1ccc([C@@H]2CC(=O)c3c(O)cc(O)cc3O2)cc1O` [hesperetin]: in assay [4], the “enhancement of the sweetness of sucrose” value is given as 41%.
